Consider 32 molecules from patent publication US5684034A, “1H-indole-3-acetamide sPLA2 inhibitors” (Eli Lilly and Company, priority 1995, dated 1997).

This experiment addresses T1, recombinant human secreted phospholipase A2 (Homo sapiens, UniProt P14555).
T1 sequence (P14555 21-144): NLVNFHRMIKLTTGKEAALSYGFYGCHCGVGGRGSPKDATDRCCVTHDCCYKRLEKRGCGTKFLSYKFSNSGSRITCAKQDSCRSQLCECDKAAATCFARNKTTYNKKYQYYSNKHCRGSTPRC
Put plainly: Human secreted phospholipase A2 inhibition test (chromogenic assay, diheptanoyl thio-PC substrate). The following applies: pH 7.5, 40° C., 30 minutes, 405 nm. It counts as biochemical. As to the method:
The following chromogenic assay procedure was used to identify and evaluate inhibitors of recombinant human secreted phospholipase A2. The assay described herein has been adapted for high volume screening using 96 well microtiter plates.
A measured volume of racetic dipheptanoyl thio PC supplied in chloroform at a concentration of 100 mg/ml is taken to dryness and redissolved in 10 millimolar TRITON X-100™ nonionic detergent aqueous solution. Reaction Buffer is added to the solution, then DTNB to give the Reaction Mixture.
The reaction mixture thus obtained contains 1 mM diheptanoly thio-PC substrate, 0.29 mm Triton X-100™ detergent, and 0.12 mm DTMB in a buffered aqueous solution at pH 7.5.
1. Add 0.2 ml reaction mixture to all wells;
2. Add 10 ul test compound (or solvent blank) to appropriate wells, mix 20 seconds:
3. Add 50 nanograms of sPLA2 (10 microliters) to appropriate wells;
4. incubate plate at 40° C. for 30 minutes;
All compounds were tested in triplicate. […] Each sample was titrated in triplicate and result values were averaged for plotting and calculation of IC50 values. […] Each IC50 value was determined three times.

Setting [1] is: read-out: Inhibition of human secreted PLA2 IC50 ± mean deviation (3-5 tests).
Where [2] appears, read: Inhibition of human secreted PLA2 IC50 ± mean deviation (3-5 tests).

SMILES strings stand for the structures. Where “and” joins values, the source holds several entries; their conditions need not be identical. Identical values can stand only once. Counter-ions that a name gives are not always drawn. Like-named read-outs stand apart in the source and are kept apart here.

On to `Cc1c(CC(N)=O)c2ccc(OCCCCC(=O)O)cc2n1Cc1ccccc1` [Example 34, 5-[[3-(2-Amino-2-oxoethyl)-2-methyl-1-(phenylmethyl)-1H-indol-6-yl]oxy]pentanoic acid], for which, under setting [1], the IC50 was 7960 ± 1220 nM.
Same read-out and setting: the figure for `CCCCCCCCCCCCCCn1c(C)c(CC(N)=O)c2cc(OCCCC(=O)O)ccc21` [Example 49] is 470 ± 50 nM; for `COC(=O)CCN(CCC(=O)OC)c1ccc2c(c1)c(CC(N)=O)c(C)n2Cc1ccccc1` [Example 26, 3,3'-[[3-(2-Amino-2-oxoethyl)-2-methyl-1-(phenylmethyl)-1H-indol-5-yl]imino]bis[propanoic acid]dimethyl ester] it is 2490 nM.
For the molecule `Cc1c(CC(N)=O)c2cc(NCCC(=O)O)ccc2n1Cc1ccccc1` [Example 27, 3-[[3-(2-Amino-2-oxoethyl)-2-methyl-1-(phenylmethyl)-1H-indol-5-yl]amino]propanoic acid], the IC50 under setting [2] amounted to 3300 ± 100 nM.
With `NC(=O)Cc1c(Br)n(Cc2ccccc2)c2ccc(OCCCC(=O)O)cc12` [Example 43, 4-[[3-(2-Amino-2-oxoethyl)-2-bromo-1-(phenylmethyl)-1H-indol-5-yl]oxy]butanoic acid], the concentration for half-maximal inhibition (IC50) under setting [1] is 70 ± 30 nM.
Still for that read-out and setting: for `Cc1c(CC(N)=O)c2cc(NCCC(=O)NN)ccc2n1Cc1ccccc1` [Example 28, 3-[[3-(2-Amino-2-oxoethyl)-2-methyl-1-(phenylmethyl)-1H-indol-5-yl]amino]propanoic acid hydrazide] the value was 1550 ± 930 nM.
Consider `Cc1c(CC(N)=O)c2cc(OCc3ccccc3C(=O)O)ccc2n1Cc1ccccc1` [Example 97, 2-[[[3-(2-Amino-2-oxoethyl)-2-methyl-1-(phenylmethyl)-1H-indol-5-yl]oxy]methyl]benzoic acid], for which the IC50 under setting [2] is 150 ± 10 nM.
Still for that read-out and setting: the figure for `C=CCc1c(O)ccc2c1c(CC(N)=O)c(CC)n2Cc1ccccc1` [Example 93, 4-Allyl-2-ethyl-5-hydroxy-1-(phenylmethyl)-1H-indole-acetamide] is 140 ± 40 nM; for `NC(=O)Cc1c(Br)n(Cc2ccccc2)c2ccc(OCCCP(=O)(O)O)cc12` [Example 88] it is 30 ± 6 nM.
Regarding `Cc1c(CC(N)=O)c2c(OCC(N)=O)cccc2n1Cc1ccccc1` [Example 66, 4-(2-Amino-2-oxoethoxy)-2-methyl-1-(phenylmethyl)-1H-indole-3-acetamide], the IC50 under setting [1] is 360 ± 70 nM.
Turning to `CCOC(=O)CCCOc1ccc2c(c1)c(CC(N)=O)c(CC)n2Cc1ccccc1` [Example 57], the IC50 under setting [1] came out at 1270 nM.
Same read-out and setting: for `NC(=O)Cc1cn(Cc2ccccc2)c2cc(Cl)c(OCCCP(=O)(O)O)cc12` [Example 92, 3-[4-[[3-(2-Amino-2-oxoethyl)-6-chloro-1-(phenylmethyl)-1H-indol-5-yl]oxy]propyl]phosphonic acid] the value was 14 ± 4 nM; for `Cc1c(CC(N)=O)c2cc(Oc3ccccc3)ccc2n1Cc1ccccc1` [Example 95, 2-Methyl-5-phenoxy-1-(phenylmethyl)-1H-indole-3-acetamide], 1010 ± 320 nM; for `NC(=O)Cc1c(C2CC2)n(Cc2ccccc2)c2ccc(O)cc12` [Example 78, 2-Cyclopropyl-5-hydroxy-1-(phenylmethyl)-1H-indole-3-acetamide], 118 ± 11 nM.
Same read-out and setting: the figure for `Cc1c(CC(N)=O)c2c(OCC(=O)NN)cccc2n1Cc1ccccc1` [Example 65, 4-(2-Hydrazino-2-oxoethoxy)-2-methyl-1-(phenylmethyl)-1H-indole-3-acetamide] is 360 ± 130 nM; for `CCCCCCCCn1c(C)c(CC(N)=O)c2cc(OCCCC(=O)O)ccc21` [Example 52] it is 770 ± 270 nM; for `COc1ccc2c(c1)c(CC(N)=O)c(C)n2Cc1cccc(Cl)c1` [Example 69, 1-[(3-Chlorophenyl)methyl]-5-methoxy-2-methyl-1H-indole-3-acetamide] it is 1380 ± 520 nM.
On the same count and under the same terms, for `NC(=O)Cc1cn(Cc2ccccc2)c2cccc(OCC(=O)O)c12` [Example 76, 2-[[3-(2-Amino-2-oxoethyl)-1-(phenylmethyl)-1H-indol-4-yl]oxy]acetic acid] the value was 337 nM and 305 nM; for `CCCCCCn1c(C)c(CC(N)=O)c2cc(OCCCC(=O)O)ccc21` [Example 50], 2470 ± 1310 nM; for `Cc1c(CC(N)=O)c2cc(N)ccc2n1Cc1ccccc1` [Example 17, 5-Amino-2-methyl-1-(phenylmethyl)-1H-indole-3-acetamide], 1610 ± 440 nM.
Take `CCc1c(CC(N)=O)c2cc(OCc3ccccc3C(=O)OC)ccc2n1Cc1ccccc1` [Example 98, 2-[[[3-(2-Amino-2-oxoethyl)-2-ethyl-1-(phenylmethyl)-1H-indol-5-yl]oxy]methyl]benzoic acid methyl ester]: the 50% inhibitory concentration (IC50) under setting [1] came to 1150 ± 320 nM.
With `CCc1c(CC(N)=O)c2cc(OCCCP(=O)(OC)OC)ccc2n1Cc1ccccc1` [Example 61, [3-[[3-(2-Amino-2-oxoethyl)-2-ethyl-1-(phenylmethyl)-1H-indol-5-yl]oxy]propyl]phosphonic acid dimethyl ester], the IC50 under setting [2] amounted to 270 nM.
With `CCc1c(CC(N)=O)c2cc(OCCCP(=O)(O)O)ccc2n1Cc1cccc(Cl)c1` [Example 64, [3-[[3-(2-Amino-2-oxoethyl)-1-[(3-chlorophenyl)methyl]-2-ethyl-1H-indol-5-yl]oxy]propyl]phosphonic acid], the IC50 under setting [1] came out at 16 ± 1 nM.
The same measure, in the same setting: the figure for `NC(=O)Cc1cn(Cc2ccccc2)c2ccc(OCCCC(=O)O)cc12` [Example 83, 4-[[3-(2-Amino-2-oxoethyl)-1-(phenylmethyl)-1H-indol-5-yl]oxy]butanoic acid] is 150 ± 40 nM.
As for `Cc1c(CC(N)=O)c2cc(O)ccc2n1Cc1ccccc1` [Example 2, 5-Hydroxy-2-methyl-1-(phenylmethyl)-1H-indole-3-acetamide], the IC50 under setting [2] is 840 ± 380 nM.
The same measure, in the same setting: for `CCOC(=O)CCCCOc1ccc2c(CC(N)=O)c(C)n(Cc3ccccc3)c2c1` [Example 33, 5-[[3-(2-Amino-2-oxoethyl)-2-methyl-1-(phenylmethyl)-1H-indol-6-yl]oxy]pentanoic acid ethyl ester] the value was 300 ± 120 nM.
Regarding `Cc1c(CC(N)=O)c2cc(O)ccc2n1Cc1cccc(Cl)c1` [Example 70, 1-[(3-Chlorophenyl)methyl]-5-hydroxy-2-methyl-1H-indole-3-acetamide], the IC50 under setting [1] was found to be 5880 ± 1170 nM.
With `NC(=O)Cc1cn(Cc2ccccc2)c2ccc(OCCCP(=O)(O)O)cc12` [Example 80, [3-[[3-(2-Amino-2-oxoethyl)-1-(phenylmethyl)-1H-indol-5-yl]oxy]propyl]phosphonic acid], the IC50 under setting [2] worked out at 200 ± 90 nM.
The same measure, in the same setting: for `NC(=O)Cc1c(C2CC2)n(Cc2ccccc2)c2ccc(OCCCP(=O)(O)O)cc12` [Example 79, [3-[[3-(2-Amino-2-oxoethyl)-2-cyclopropyl-1-(phenylmethyl)-1H-indol-5-yl]oxy]propyl]phosphonic acid] the value was 46 ± 6 nM.
On to `Cc1c(CC(N)=O)c2c(OCC(=O)O)cccc2n1Cc1cccc(Cl)c1` [Example 72, [[3-(2-Amino-2-oxoethyl)-1-[(3-chlorophenyl)methyl]-2-methyl-1H-indol-4-yl]oxy]methyl]acetic acid sodium salt], for which the IC50 under setting [2] was 50 ± 150 nM.
On to `Cc1c(CC(N)=O)c2cc(OCCCC(=O)O)ccc2n1CC1CCCCC1` [Example 54], for which, under setting [1], the IC50 amounted to 650 ± 150 nM.
`COC(=O)c1cccc(COc2ccc3c(c2)c(CC(N)=O)c(C)n3Cc2ccccc2)c1` [Example 100, 3-[[[3-(2-Amino-2-oxoethyl)-2-methyl-1-(phenylmethyl)-1H-indol-5-yl]oxy]methyl]benzoic acid methyl ester]: the IC50 under setting [1] was 3840 ± 1320 nM.
